Laboratory results: ChEMBL document CHEMBL3046526, “-Glucosidase inhibitory and antioxidant properties and antidiabetic activity of Hypericum ascyron L” (Med Chem Res, 2011)
≈ marks a conversion by molar mass, not a printed value.

Experiments:
[1] = test system: Radical scavenging activity; assay: Antioxidant activity assessed as inhibition of DPPH radical production after 30 min by microplate assay; assay type: functional
[2] = test system: Radical scavenging activity; assay: Antioxidant activity assessed as inhibition of DPPH radical production at 10.81 ug/ml after 30 min by microplate assay; assay type: functional
[3] = Inhibition of alpha-glucosidase (unknown origin) using PNPG as substrate incubated for 15 min prior to substrate addition measured after 15 min by spectrophotometric analysis; design: species or system Homo sapiens
Homo sapiens [4] = species on record: Homo sapiens; assay: Inhibition of alpha-glucosidase (unknown origin) using PNPG as substrate at 0.83 uM incubated for 15 min prior to substrate addition measured after 15 min by spectrophotometric analysis
[5] = target: Lysosomal alpha-glucosidase (Rattus norvegicus) (UniProt Q6P7A9); conditions: 0.83 uM
Description: Inhibition ofRattus norvegicus alpha-glucosidase isolated from intestine using PNPG as substrate at 0.83 uM incubated for 15 min prior to substrate addition measured after 15 min by spectrophotometric analysis

[6] = test system: Radical scavenging activity; assay: Antioxidant activity assessed as inhibition of DPPH radical production at 54.05 ug/ml after 30 min by microplate assay; assay type: functional
[7] = target: Lysosomal alpha-glucosidase (Rattus norvegicus) (UniProt Q6P7A9); assay: Inhibition ofRattus norvegicus alpha-glucosidase isolated from intestine using PNPG as substrate at 0.03 uM incubated for 15 min prior to substrate addition measured after 15 min by spectrophotometric analysis
Homo sapiens [8] = species on record: Homo sapiens; assay: Inhibition of alpha-glucosidase (unknown origin) using PNPG as substrate at 0.03 uM incubated for 15 min prior to substrate addition measured after 15 min by spectrophotometric analysis
[9] = target: Lysosomal alpha-glucosidase (Rattus norvegicus) (UniProt Q6P7A9); assay: Inhibition ofRattus norvegicus alpha-glucosidase isolated from intestine using PNPG as substrate at 0.02 uM incubated for 15 min prior to substrate addition measured after 15 min by spectrophotometric analysis
[10] = Inhibition of alpha-glucosidase (unknown origin) using PNPG as substrate at 0.02 uM incubated for 15 min prior to substrate addition measured after 15 min by spectrophotometric analysis; conditions: Homo sapiens
[11] = test system: Radical scavenging activity; assay: Antioxidant activity assessed as inhibition of DPPH radical production at 108.11 ug/ml after 30 min by microplate assay; assay type: functional

Chain of Lysosomal alpha-glucosidase (Rattus norvegicus) (Q6P7A9 whole entry): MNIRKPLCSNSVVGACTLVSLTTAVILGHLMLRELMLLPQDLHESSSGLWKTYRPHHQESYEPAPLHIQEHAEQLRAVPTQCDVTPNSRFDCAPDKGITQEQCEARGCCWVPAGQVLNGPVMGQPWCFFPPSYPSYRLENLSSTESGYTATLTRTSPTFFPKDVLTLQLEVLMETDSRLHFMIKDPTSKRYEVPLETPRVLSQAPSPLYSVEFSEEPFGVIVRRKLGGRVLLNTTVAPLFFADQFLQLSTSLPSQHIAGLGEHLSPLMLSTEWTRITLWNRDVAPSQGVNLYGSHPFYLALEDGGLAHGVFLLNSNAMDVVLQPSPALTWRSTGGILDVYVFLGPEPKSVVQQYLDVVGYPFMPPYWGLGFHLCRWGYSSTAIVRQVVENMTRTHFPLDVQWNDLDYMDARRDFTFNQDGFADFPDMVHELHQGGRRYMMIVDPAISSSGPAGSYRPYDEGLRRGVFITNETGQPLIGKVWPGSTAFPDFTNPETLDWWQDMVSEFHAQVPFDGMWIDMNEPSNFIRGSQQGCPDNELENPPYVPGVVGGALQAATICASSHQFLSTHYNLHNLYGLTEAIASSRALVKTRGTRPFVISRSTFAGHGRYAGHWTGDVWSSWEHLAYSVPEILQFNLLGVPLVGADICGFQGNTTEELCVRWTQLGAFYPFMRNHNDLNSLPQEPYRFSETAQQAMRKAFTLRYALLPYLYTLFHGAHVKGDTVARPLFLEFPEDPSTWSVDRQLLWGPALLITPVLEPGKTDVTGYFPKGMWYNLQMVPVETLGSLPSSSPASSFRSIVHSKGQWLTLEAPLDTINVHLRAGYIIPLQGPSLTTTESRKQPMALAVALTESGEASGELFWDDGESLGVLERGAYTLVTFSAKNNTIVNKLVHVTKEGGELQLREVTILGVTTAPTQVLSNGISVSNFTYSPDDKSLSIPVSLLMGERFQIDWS

| Structure (SMILES) | IC50 [1] | IC50 [3] | inhibition [6] | inhibition [9] | inhibition [10] | other results |
| --- | --- | --- | --- | --- | --- | --- |
| CCCOC(=O)c1cc(O)c(O)c(O)c1 [PROPYL GALLATE] | 3.96 mg/L (≈ 18.7 µM) |  |  |  |  | inhibition [2]: 89% |
| C[C@H]1O[C@H](O[C@H]2[C@H](O)[C@@H](O)[C@@H](O[C@H]3[C@H](O)[C@@H](O)C(O)O[C@@H]3CO)O[C@@H]2CO)[C@H](O)[C@@H](O)[C@@H]1N[C@H]1C=C(CO)[C@@H](O)[C@H](O)[C@H]1O (some centres undefined) [ACARBOSE] |  | 895 µM |  |  |  | inhibition (Homo sapiens [4]): 68.4%; inhibition [5]: 55.2% |
| O=c1c(O)c(-c2ccc(O)c(O)c2)oc2c(O)ccc(O)c12 |  |  | 2.63% |  |  | inhibition [7]: < 50%; inhibition (Homo sapiens [8]): 14.3% |
| O=c1c(O[C@@H]2O[C@H](CO)[C@@H](O)[C@H](O)[C@H]2O)c(-c2ccc(O)c(O)c2)oc2cc(O)cc(O)c12 [ISOQUERCETIN] | 24.02 mg/L (≈ 51.7 µM) |  | 86.1% | < 50% | 14.4% |  |
| C[C@H]1[C@H](C)CC[C@]2(C(=O)O)CC[C@]3(C)C(=CC[C@@H]4[C@@]5(C)CC[C@H](O)C(C)(C)[C@@H]5CC[C@]43C)[C@H]12 [URSOLIC ACID] |  | 1.78 µM |  | < 50% | 99.7% |  |
| O=c1c(O[C@@H]2O[C@H](CO)[C@@H](O)[C@H](O)[C@H]2O)c(-c2ccc(O)cc2)oc2cc(O)cc(O)c12 |  |  | 1.96% | < 50% | 18% |  |
| O=c1c(O[C@@H]2O[C@H](CO)[C@H](O)[C@H](O)[C@H]2O)c(-c2ccc(O)c(O)c2)oc2cc(O)cc(O)c12 [HYPEROSIDE] | 24.02 mg/L (≈ 51.7 µM) |  | 86.5% | < 50% | 14.2% |  |
| Cc1cc(C(C)(C)C)c(O)c(C(C)(C)C)c1 [BUTYLATED HYDROXYTOLUENE] | 40.8 mg/L (≈ 185 µM) |  |  |  |  | inhibition [11]: 80.5% |
| O=c1c(O)c(-c2ccc(O)cc2)oc2cc(O)cc(O)c12 [KAEMPFEROL] | 14.78 mg/L (≈ 51.6 µM) | 61.8 µM | 90.1% |  |  | inhibition [7]: 99.3%; inhibition (Homo sapiens [8]): 51.5% |
